Results taken from ChEMBL document CHEMBL1146990, “Antibacterial activity of (-)-deoxypseudophrynaminol versus its racemate and derivatives” (2006).
Active and inactive are the calls of the source. The rule behind the calls is not given here.

Tests used:
Staphylococcus aureus [1] = test: Antibacterial activity against Staphylococcus aureus at 10 ug/ml relative to control; type: functional
Staphylococcus aureus [2] = test: Antibacterial activity against Staphylococcus aureus at 40 ug/ml relative to control; type: functional

| Structure (SMILES) | Activity (Staphylococcus aureus [1]) | Activity (Staphylococcus aureus [2]) |
| --- | --- | --- |
| CC(C)=CC[C@@]12CCN(C)[C@@H]1Nc1ccccc12 | 50% | 99% |
| CC(C)=CC[C@@]12CCN(C)[C@@H]1Nc1ccccc12 (racemic) [listing 1 of 2 here] | – | 85% |
| CC(C)=CC[C@@]12CCN(C)[C@@H]1Nc1ccccc12 (racemic) [listing 2 of 2 here] | inactive | – |
| COC(=O)N1CC[C@@]2(CC=C(C)C)c3ccccc3N(CC=C(C)C)[C@@H]12 (racemic) | inactive | inactive |
| CC(C)=CCN1c2ccccc2[C@]2(CC=C(C)C)CCN(C)[C@H]12 (racemic) [(-)-DEBROMOFLUSTRAMINE B] | – | 30% |
